Consider 19 molecules from PubChem BioAssay (NCI).

Among the test systems are CCRF-CEM leukemia; TK-10 renal; HCT-15 colon; UO-31 renal; CAKI-1 renal; A498 renal; SNB-19 CNS; RXF 393 renal; OVCAR-4 ovarian; SK-MEL-2 melanoma.
What all share (assay): NCI anticancer screen, dose series, 48 h

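Tested at 5 concentrations; 48 h exposure; 96-well plates; endpoints linearly interpolated, else capped at highest concentration. The concentration for 50% growth inhibition is given as GI50. Definition used: TGI = concentration required for complete inhibition of growth.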 Where a SMILES comes first, the peptide text is derived from it. [ ]: non-standard residue; d: D form.

In the case of `Cc1cc2nc(-c3ccc(O)c(O)c3)n(Cc3ccc(O)c(O)c3)c2cc1C`, the GI50 in the assay on CCRF-CEM leukemia was 4.23 µM; with TK-10 renal, 26.9 µM; in the assay with HCT-15 colon it was 7.1 µM; in the assay with UO-31 renal, 64.3 µM; in the assay with CAKI-1 renal, 17 µM; in the assay on A498 renal, 77.2 µM. Also, the values for the GI50 in the assay on SNB-19 CNS, with RXF 393 renal and in the assay with OVCAR-4 ovarian were 65 µM, 21.2 µM and 54.9 µM, respectively. The TGI was 25.5 µM in the assay on CCRF-CEM leukemia; 82.6 µM in the assay with TK-10 renal; 35.8 µM in the assay with HCT-15 colon; over 100 µM with UO-31 renal; 81.1 µM in the assay with CAKI-1 renal; over 100 µM in the assay with A498 renal. Besides, the TGI in the assay with SNB-19 CNS, in the assay on RXF 393 renal and in the assay on OVCAR-4 ovarian was over 100 µM each time.
For the molecule `CCCC(=O)OC(OC(=O)CCC)c1ccc([N+](=O)[O-])o1`, the TGI was over 100 µM in the assay with CCRF-CEM leukemia; 53.5 µM with TK-10 renal; 43.4 µM with HCT-15 colon; 56.7 µM with UO-31 renal; 86.2 µM in the assay with SK-MEL-2 melanoma; 38.4 µM in the assay with CAKI-1 renal. For the same molecule, the TGI with A498 renal is over 100 µM; in the assay with SNB-19 CNS it was over 100 µM; in the assay with RXF 393 renal it was 54 µM.
`C=CCCC(=O)CC(=O)OCc1ccccc1`: the TGI with CCRF-CEM leukemia, in the assay on TK-10 renal, with HCT-15 colon, with UO-31 renal, with SK-MEL-2 melanoma and in the assay on CAKI-1 renal was over 100 µM in each case. The TGI in the assay with A498 renal, with SNB-19 CNS and in the assay with OVCAR-4 ovarian was over 100 µM each time.
For the molecule `O=C1C(OC(=O)c2ccccc2)=C(c2ccc(O)cc2)C(=O)C(OC(=O)c2ccccc2)=C1c1ccc(O)cc1`, the TGI in the assay with CCRF-CEM leukemia, in the assay with TK-10 renal, in the assay on HCT-15 colon, in the assay with UO-31 renal, in the assay with SK-MEL-2 melanoma and in the assay with CAKI-1 renal was over 100 µM each time. The TGI with A498 renal, in the assay on SNB-19 CNS and in the assay on OVCAR-4 ovarian was over 100 µM in each case.
Take `COc1ccc(F)cc1-c1ccnc2[nH]c(C3=CCN(C4CCC(CC(=O)O)CC4)CC3)cc12` (configuration not stated): the GI50 is 0.13 µM with CCRF-CEM leukemia; 0.344 µM in the assay on TK-10 renal; 0.249 µM with HCT-15 colon; 0.205 µM in the assay with UO-31 renal; 0.434 µM in the assay with CAKI-1 renal; 0.21 µM with A498 renal. The figures for the GI50 with SNB-19 CNS, in the assay with RXF 393 renal and in the assay on OVCAR-4 ovarian were 0.152 µM, 0.0413 µM and 0.282 µM, respectively. Further, the TGI with CCRF-CEM leukemia was over 100 µM; in the assay with TK-10 renal it was over 100 µM; with HCT-15 colon it was over 100 µM; with UO-31 renal, 0.625 µM; with CAKI-1 renal it was over 100 µM; with A498 renal it was 0.543 µM. The TGI in the assay with SNB-19 CNS is over 100 µM; with RXF 393 renal it was 0.216 µM; in the assay with OVCAR-4 ovarian it was 6.44 µM.
As for `COc1cc(CCc2ccncc2)cc(OC)c1OC`, the TGI in the assay on CCRF-CEM leukemia, with TK-10 renal, with HCT-15 colon, with UO-31 renal, in the assay on CAKI-1 renal and in the assay on A498 renal was over 100 µM each time. The TGI in the assay on SNB-19 CNS, in the assay on RXF 393 renal and in the assay with OVCAR-4 ovarian was over 100 µM throughout.
In the case of `C=C1C(=O)OC2(C)CCC1CC1OC1(C)CCC=C(C)CCC2O` (configuration not stated), the TGI with CCRF-CEM leukemia, with TK-10 renal, in the assay on HCT-15 colon, in the assay with UO-31 renal, in the assay with SK-MEL-2 melanoma and with CAKI-1 renal was over 100 µM in each case. The TGI in the assay on A498 renal, in the assay on SNB-19 CNS and in the assay with OVCAR-4 ovarian was over 100 µM each time.
`CCOC(=O)C(=O)Nc1nc2ccc(C)cc2s1`: the TGI with CCRF-CEM leukemia, in the assay on HCT-15 colon, in the assay with UO-31 renal, in the assay with SK-MEL-2 melanoma, with CAKI-1 renal and in the assay with A498 renal was over 100 µM each time. The TGI in the assay with SNB-19 CNS and in the assay with OVCAR-4 ovarian was over 100 µM each time.
For `Nc1ccn(C2CC3OCC3O2)c(=O)n1` (configuration not stated), the TGI in the assay with CCRF-CEM leukemia, in the assay with TK-10 renal, with HCT-15 colon, with UO-31 renal, in the assay with SK-MEL-2 melanoma and in the assay with CAKI-1 renal was over 100 µM in each case. The TGI in the assay on A498 renal, in the assay on SNB-19 CNS and with OVCAR-4 ovarian was over 100 µM throughout.
In the case of `O=C1C(=Cc2ccc(F)cc2)C(=O)c2ccccc21`, the TGI with CCRF-CEM leukemia, with TK-10 renal, with HCT-15 colon, in the assay on UO-31 renal, in the assay with SK-MEL-2 melanoma and with CAKI-1 renal was over 100 µM throughout. For the same molecule, the TGI with A498 renal, in the assay on SNB-19 CNS and with OVCAR-4 ovarian was over 100 µM each time.
Take `COC(=O)C(=O)C(C#N)c1c(Cl)cccc1Cl` (configuration not stated): the TGI in the assay on TK-10 renal, in the assay with HCT-15 colon, with UO-31 renal, with SK-MEL-2 melanoma, in the assay with CAKI-1 renal and in the assay on A498 renal was over 100 µM in each case. For the same molecule, the TGI in the assay with SNB-19 CNS, in the assay on RXF 393 renal and in the assay with OVCAR-4 ovarian was over 100 µM throughout.
For the molecule `CCN1CCC(O)(/C=C/c2ccccc2)C(C(=O)/C=C/c2ccccc2)C1` (configuration not stated), the TGI was determined as 7.88 µM in the assay with TK-10 renal; 3.84 µM with HCT-15 colon; 21.7 µM in the assay on UO-31 renal; 7.25 µM with SK-MEL-2 melanoma; 6.44 µM in the assay with CAKI-1 renal; 18.4 µM in the assay on A498 renal. In addition, the TGI in the assay on SNB-19 CNS worked out at 22.3 µM; in the assay on RXF 393 renal it was 3.24 µM; with OVCAR-4 ovarian, 8.01 µM.
Regarding `CSCC[C@H](NC(=O)[C@@H](N)CC(N)=O)C(=O)N[C@@H](Cc1c[nH]c2ccccc12)C(=O)N[C@@H](CCC(N)=O)C(=O)N[C@@H](CCC(=O)O)C(=O)N[C@H](C(=O)NCC(=O)N[C@@H](CCCCN)C(=O)N[C@H](C)C(=O)O)C(C)C` (H-NMWQEVGK[dA]-OH), the TGI in the assay with CCRF-CEM leukemia, in the assay on TK-10 renal, with HCT-15 colon, with CAKI-1 renal, in the assay with A498 renal and in the assay with SNB-19 CNS was over 100 µM in each case. For the same molecule, the TGI with RXF 393 renal and with OVCAR-4 ovarian was over 100 µM in each case.
As for `C/C(=N\Nc1n[nH]c(=S)n1N)c1c(O)cc(C)oc1=O`, the TGI in the assay on CCRF-CEM leukemia, with TK-10 renal, in the assay with HCT-15 colon, in the assay with UO-31 renal, in the assay on SK-MEL-2 melanoma and in the assay with CAKI-1 renal was over 100 µM in each case. In addition, the TGI in the assay on A498 renal, with SNB-19 CNS and in the assay on OVCAR-4 ovarian was over 100 µM in each case.
With `CC1=C2C3OC(=O)C(C)C3C(O)C[C@@]2(C)C(=O)CC1` (some centres not stated), the TGI in the assay with CCRF-CEM leukemia, in the assay with TK-10 renal, in the assay with HCT-15 colon, in the assay with UO-31 renal, in the assay on CAKI-1 renal and in the assay with A498 renal was over 100 µM throughout. The TGI with SNB-19 CNS, with RXF 393 renal and in the assay with OVCAR-4 ovarian was over 100 µM in each case.
Consider `N/C(CC(=O)NOC(=O)c1ccccc1)=N/OC(=O)c1ccccc1`, for which the TGI with CCRF-CEM leukemia is over 100 µM; in the assay on TK-10 renal it was over 100 µM; in the assay with HCT-15 colon, over 100 µM; in the assay on UO-31 renal, 53.9 µM; in the assay on CAKI-1 renal, over 100 µM; with A498 renal it was over 100 µM. In addition, the TGI was over 100 µM in the assay with SNB-19 CNS, 60.6 µM in the assay with RXF 393 renal and 75 µM in the assay on OVCAR-4 ovarian.
Take `O/N=C1\C(=C\c2ccc3c(c2)OCCO3)CCCC1C(NO)c1ccc2c(c1)OCCO2` (configuration not stated): the TGI with CCRF-CEM leukemia is 48.9 µM; with TK-10 renal, 50.7 µM; with HCT-15 colon, 68.6 µM; in the assay on UO-31 renal, 68.7 µM; in the assay with CAKI-1 renal, over 100 µM; in the assay with A498 renal, 60 µM. Moreover, the TGI was over 100 µM in the assay on SNB-19 CNS, 59.3 µM with RXF 393 renal and over 100 µM with OVCAR-4 ovarian.
Consider `CC(=O)[O][Hg][c]1s[c]([Hg][O]C(C)=O)[c]([Hg][O]C(C)=O)[c]1[Hg][O]C(C)=O`, for which the GI50 in the assay on CCRF-CEM leukemia was 1.18 µM; in the assay on HCT-15 colon, 4.51 µM; in the assay on UO-31 renal, 4.61 µM; in the assay with SK-MEL-2 melanoma, 2.19 µM; in the assay on A498 renal, 20.1 µM; in the assay on SNB-19 CNS, 4.27 µM. Also, the GI50 in the assay on RXF 393 renal is 13.1 µM; in the assay with OVCAR-4 ovarian, 12.7 µM. Also, the TGI in the assay with CCRF-CEM leukemia is over 100 µM; with HCT-15 colon, 30.4 µM; with A498 renal, 35.1 µM; with SNB-19 CNS it was 16.3 µM; in the assay with RXF 393 renal, 28.6 µM; in the assay with OVCAR-4 ovarian it was 87.7 µM.
On to `CC1OC(=O)N2CCC=CC12` (configuration not stated), for which the TGI in the assay with CCRF-CEM leukemia, with TK-10 renal, in the assay with HCT-15 colon, in the assay on UO-31 renal, in the assay with SK-MEL-2 melanoma and with A498 renal was over 100 µM each time. For the same molecule, the TGI with SNB-19 CNS, in the assay with RXF 393 renal and with OVCAR-4 ovarian was over 100 µM in each case.
